The results in this text go back to patent US7332489B2, “Methods and compositions of novel triazine compounds” (Reddy US Therapeutics, Inc., priority 2003, dated 2008).

Where two headings read alike, the source gives them in different places. Some results are limits rather than exact numbers.

Series [1] has as its system TNF-α induced IL-6. Kind of series: TNF-α-induced IL-6 production determined by IL-6 ELISA. It is filed as cell-based. As to conditions: for activity at 10 µM: Homo sapiens, 24 h. The method in brief: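 Human aortic endothelial cells grown to ≥90% confluence, then treated with compounds and stimuli in serum-free medium with 0.2% albumin. Secreted IL-6 in collected media measured by sandwich ELISA (2 ug/ml capture, 200 ng/ml biotinylated detection antibody, streptavidin-HRP), read at 450 nm.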

The subject of series [2] is cells. Put plainly: Cytotoxicity/Lactate Dehydrogenase assay. It is filed as cell-based. As to conditions: toxic or cause cell death; concentrations (uM) given. The procedure: An appropriate number of cells are plated in four 96-well plates, one plate for “day 0” and three plates for days 1-3. Cells are treated with at least one compound of the present invention in varying concentrations with and without the apoptosis inducer cisplatin (2 μM) (“+cis” or “-cis”). Unteated cells are also assayed with and without cisplatin. After transfection, the plates are incubated at 37° C. overnight.
An appropriate number of cells are plated in four 96-well plates, one plate for “day 0” and three plates for days 1-3. Cells are treated with at least one compound of the present invention in varying concentrations. The negative control cells have normal media conditions, a duplicate set of wells is treated with the composition in which the compound is provided, but there is no added compound and the positive control cells are treated with the apoptosis inducer cisplatin (2 μM). All of the cells are transfected with a vector having a promoter that is responsive to apoptosis conditions. When apoptosis occurs, the promoter is turned on and the lactic dehydrogenase gene is activated and the enzyme protein is made and active. Activity is easily detected with a color change. After transfection, the plates are incubated at 37° C. overnight.
About 8 mls of warmed alpha MEM LDH lysis buffer (2% Triton X100) and about 8 mls of culture media (1/2 dilution) are combined. Two 96-well v-bottom plates are prepared, one labeled “lysis” and one labeled “supernatant.” To lyse the cells, about 200 μl Alpha MEM lysis buffer (diluted 1/2) is added to one test plate from which the supernatant has been removed and added to the plate labeled supernatant. After mixing, about 200 μl of lysed cells are transferred to the lysis plate. Both the lysis and supernatant plates are centrifuged at about 1600 rpm for about 10 min. After centrifugation, about 100 μl of both the supernatant or lysate is transferred to corresponding 96-well flat-bottomed plates.
The assay for cytotoxicity uses the Cytotoxicity Detection Kit (LDH) from Roche Diagnostics Corp. (Indianapolis, Ind.). Using the directions provided, the dye solution is mixed and added each well of the lysate and supernatant plate and incubated for up to 20-25 min at 15-25° C. in the dark.

In series [3] the test system is Human aortic smooth muscle cells. Kind of series: Smooth muscle cell proliferation assay / anti-proliferation assay (perlecan).
Procedure: Human aortic smooth muscle cells (Clonetics) were used. Cells were grown in basal medium containing 5% fetal bovine serum supplemented with growth factors, basic fibroblast growth factor, epidermal growth factor and insulin. […] The cells were then serum starved for 24 h to induce quiescence. Fresh growth medium containing no compound or 10 μM compound was then added and further incubated for 24 h. Cell number was determined by using a cell proliferation assay kit (Celltiter96 AQueous from Promega).
[4] abbreviates: Table 5, second part, column 1, class = % of control IL6 production, read-out: Inhibition of TNF-induced IL6, production.

For `COc1ccc(Nc2nc(NN3CCCCCC3)nc(N(C)C3CCNCC3)n2)cc1Cl`, the melting point is 81 °C.
On the same count and under the same terms, under `COc1ccc(Nc2nc(NC3CCCCCC3)nc(N3CCSCC3)n2)cc1Cl` stands 78 to 80 °C.
`CCN1CCCC1CNc1nc(Nc2cnc3ccccc3c2)nc(NC2CCCCCC2)n1` (centres unmarked) [Compound 3, N^2-cycloheptyl-N^4-[(1-ethyl-2-pyrrolidinyl)methyl]-N^6-(3-quinolinyl)-1,3,5-triazine-2,4,6-triamine]: the activity at 10 µM in series [1] (setting [4]) was in the range of 0 to 25%. Besides, the Toxicity result in series [2] was “toxic”.
For the compound `CCN1CCCC1CNc1nc(Nc2cccc3cccnc23)nc(NC2CCCCCC2)n1` (centres unmarked) [Compound 5, N^2-cycloheptyl-N^4-[(1-ethyl-2-pyrrolidinyl)methyl]-N^6-(8-quinolinyl)-1,3,5-triazine-2,4,6-triamine], the Toxicity entry in series [2] was “toxic”.
On the same count and under the same terms, to `CCN1CCCC1CNc1nc(Nc2ccc(Cl)c(Cl)c2)nc(NC2CCCCCC2)n1` (centres unmarked) [Compound 7, N^2-cycloheptyl-N^4-(3,4-dichlorophenyl)-N^6-[(1-ethyl-2-pyrrolidinyl)methyl]-1,3,5-triazine-2,4,6-triamine] belongs “toxic”.
Same read-out and setting: under `CCN1CCCC1CNc1nc(Nc2ccc(F)c(F)c2)nc(NC2CCCCCC2)n1` (centres unmarked) [Compound 8, N^2-cycloheptyl-N^4-(3,4-difluorophenyl)-N^6-[(1-ethyl-2-pyrrolidinyl)methyl]-1,3,5-triazine-2,4,6-triamine] stands “toxic”; under `CCN1CCCC1CNc1nc(Nc2ccc(OC(F)(F)F)cc2)nc(NC2CCCCCC2)n1` (centres unmarked) [Compound 9, N^2-cycloheptyl-N^4-[(1-ethyl-2-pyrrolidinyl)methyl]-N^6-[4-(trifluoromethoxy)phenyl]-1,3,5-triazine-2,4,6-triamine], “toxic”; under `CCN1CCCC1CNc1nc(Nc2ccc(Cl)cc2)nc(NC2CCCCCC2)n1` (centres unmarked) [Compound 12, N^2-(4-chlorophenyl)-N^4-cycloheptyl-N^6-[(1-ethyl-2-pyrrolidinyl)methyl]-1,3,5-triazine-2,4,6-triamine], “toxic”.
For `CCN1CCCC1CNc1nc(Nc2ccc(Br)cc2)nc(NC2CCCCCC2)n1` (centres unmarked) [Compound 13, N^2-(4-bromophenyl)-N^4-cycloheptyl-N^6-[(1-ethyl-2-pyrrolidinyl)methyl]-1,3,5-triazine-2,4,6-triamine], the Toxicity result in series [2] is reported as “toxic”.
For the compound `CCOC(=O)c1ccc(Nc2nc(NCC3CCCN3CC)nc(NC3CCCCCC3)n2)cc1` (centres unmarked) [Compound 14, Ethyl 4-[(4-(cycloheptylamino)-6-{[(1-ethyl-2-pyrrolidinyl)methyl]amino}-1,3,5-triazin-2-yl)-amino]benzoate], the Toxicity result in series [2] is “toxic”.
Turning to `CCN1CCCC1CNc1nc(Nc2cccc(F)c2)nc(NC2CCCCCC2)n1` (centres unmarked) [Compound 16, N^2-cycloheptyl-N^4-[(1-ethyl-2-pyrrolidinyl)methyl]-N^6-(3-fluorophenyl)-1,3,5-triazine-2,4,6-triamine], in series [2], the Toxicity result is reported as “toxic”.
On the same count and under the same terms, to `CCN1CCCC1CNc1nc(Nc2ccccc2Cl)nc(NC2CCCCCC2)n1` (centres unmarked) [Compound 21, N^2-(2-chlorophenyl)-N^4-cycloheptyl-N^6-[(1-ethyl-2-pyrrolidinyl)methyl]-1,3,5-triazine-2,4,6-triamine] belongs “toxic”; to `CCN1CCCC1CNc1nc(Nc2ccccc2Br)nc(NC2CCCCCC2)n1` (centres unmarked) [Compound 22, N^2-(2-bromophenyl)-N^4-cycloheptyl-N^6-[(1-ethyl-2-pyrrolidinyl)methyl]-1,3,5-triazine-2,4,6-triamine], “toxic”; to `CCN1CCCC1CNc1nc(Nc2ccc(Oc3ccccc3)cc2)nc(NC2CCCCCC2)n1` (centres unmarked) [Compound 36, N^2-cycloheptyl-N^4-[(1-ethyl-2-pyrrolidinyl)methyl]-N^6-(4-phenoxyphenyl)-1,3,5-triazine-2,4,6-triamine], “toxic”.
The same measure, in the same setting: to `CCN1CCCC1CNc1nc(NC2CCCCCC2)nc(N(C)c2ccc(OC(F)(F)F)cc2)n1` (centres unmarked) [Compound 47, N^2-cycloheptyl-N^4-[(1-ethyl-2-pyrrolidinyl)methyl]-N^6-methyl-N^6-[4-(trifluoromethoxy)phenyl]-1,3,5-triazine-2,4,6-triamine] belongs “toxic”; to `CCN1CCCC1CNc1nc(Nc2ccc(OC)c(F)c2)nc(NC2CCCCCCC2)n1` (centres unmarked) [Compound 54, N^2-cyclooctyl-N^4-[(1-ethyl-2-pyrrolidinyl)methyl]-N^6-(3-fluoro-4-methoxyphenyl)-1,3,5-triazine-2,4,6-triamine], “toxic”; to `CCN1CCCC1CNc1nc(Nc2ccc(OC)c(F)c2)nc(N2CCCC3CCCCC32)n1` (centres unmarked) [Compound 59, N^2-[(1-ethyl-2-pyrrolidinyl)methyl]-N^4-(3-fluoro-4-methoxyphenyl)-N^6-octahydro-1(2H)-quinolinyl-1,3,5-triazine-2,4-diamine], “toxic”.
Consider `COc1ccc(Nc2nc(NCCN(C)C)nc(NC3CCCCCC3)n2)cc1F` [Compound 93, N^2-cycloheptyl-N^4-[2-(dimethylamino)ethyl]-N^6-(3-fluoro-4-methoxyphenyl)-1,3,5-triazine-2,4,6-triamine], for which the activity at 10 µM lay in the range of 0 to 25% in series [1] (Table 5, first part, class = % of control IL6 production, read-out: Inhibition of TNF-induced IL6 production) and 0 to 25% in series [1] (setting [4]). Also, in series [2], the Toxicity entry is recorded as “toxic”.
On to `CCCCN(CCC)c1nc(Nc2ccc(OC)c(Cl)c2)nc(N(C)C2CCN(C)CC2)n1` [Compound 111, N-Butyl-N′-(3-chloro-4-methoxy-phenyl)-N″-methyl-N″-(1-methyl-piperidin-4-yl)-N-propyl-[1,3,5]triazine-2,4,6-triamine], for which, in series [1] (HAEC, 5 uM compound, TNF stimulation = 100%), the “% IL6 production compare to TNF stimulation of IL6 (100%), @ 5 uM” value worked out at 46%. Further, the activity at 10 µM is above 90% in series [1] (read-out: % IL6 production compare to TNF stimulation of IL6 (100%), Compds tested @ 10 uM HAEC, IL6) and 75 to 100% in series [1] (read-out: Inhibition of TNF-induced IL6 production). Besides, the Toxicity entry in series [2] was “Toxic by eye at 50and 10 uM noblunt/round justdeath”.
`COc1ccc(Nc2nc(Cl)nc(OCC3CCCCC3)n2)cc1F` [Compound 114, (4-Chloro-6-cyclohexylmethoxy-[1,3,5]triazin-2-yl)-(3-fluoro-4-methoxy-phenyl)-amine] had a melting point of 98 °C.
On the same count and under the same terms, to `COc1ccc(Nc2nc(Nc3ccc(OC)c(F)c3)nc(OCC3CCCCC3)n2)cc1F` [Compound 115, 6-Cyclohexylmethoxy-N,N′-bis-(3-fluoro-4-methoxy-phenyl)-1,3,5-triazine-2,4-diamine] belongs 181 °C; to `CCN1CCCC1CNc1nc(Nc2ccc(OC)c(F)c2)nc(OCC2CCCCC2)n1` (centres unmarked) [Compound 116, 6-Cyclohexylmethoxy-N-(1-ethyl-pyrrolidin-2-ylmethyl)-N′-(3-fluoro-4-methoxy-phenyl)-[1,3,5]triazine-2,4-diamine], 59 °C; to `COc1ccc(Nc2nc(Cl)nc(OCC3CCCCC3)n2)cc1Cl` [Compound 117, (4-Chloro-6-cyclohexylmethoxy-[1,3,5]triazin-2-yl)-(3-chloro-4-methoxy-phenyl)-amine], 114 °C.
Same read-out and setting: under `COc1ccc(Nc2nc(Nc3ccc(OC)c(Cl)c3)nc(OCC3CCCCC3)n2)cc1Cl` [Compound 118, N,N′-Bis-(3-chloro-4-methoxy-phenyl)-6-cyclohexylmethoxy-1,3,5-triazine-2,4-diamine] stands 188 °C.
As for `COc1ccc(Nc2nc(OCC3CCCCC3)nc(N(C)C3CCN(C)CC3)n2)cc1Cl` [Compound 119, N-(3-Chloro-4-methoxy-phenyl)-6-cyclohexylmethoxy-N′-methyl-N′-(1-methyl-piperidin-4-yl)-[1,3,5]triazine-2,4-diamine], the Toxicity result in series [2] was “toxic”.
Take `CCN1CCCC1CNc1nc(Nc2ccc(OC)c(Cl)c2)nc(NC2CCCCCC2)n1` (centres unmarked) [Compound 136, N^2-(3-chloro-4-methoxy-phenyl)-N^4-cycloheptyl-N^6-(1-ethyl-pyrrolidin-2-ylmethyl)-1,3,5-triazine-2,4,6-triamine]: the Toxicity result in series [2] is “Nothing but celldebris at 3 uM verytoxic”.
For the compound `COc1ccc(Nc2nc(NC3CCCCCC3)nc(NC3CCN(Cc4ccccc4)CC3)n2)cc1Cl` [drawing 1615], the “Proliferation Data, cell morphology (rounding, blunting, morphology change)” value in series [3] was “cell blunting at 1 uMand rounding at 5 uM”. Also, in series [1] (5 uM), the “Inflammation Data, cell death at 5 uM” value was 20%. The “Inflammation Data, cell death at 10 uM” value in series [1] (10 uM) was above 50%.

Broadly, the melting point is the temperature, or range, at which the solid turns liquid.
